From patent publication US4156427A, “Injectable male animal sterilant for selectively controlling the function of testes” (priority 1977, dated 1979)
Like-named read-outs stand apart in the source and are kept apart here.

Tests used:
human spermatozoa = details: cited from earlier work
sexually mature cats = assay: Example 16: injection into testes of sexually mature cats; assay type: in vivo, cat
Procedure: Those animals in Group I were injected in each testis with 0.1 ml of water.
The testosterone level for the cats in Group I was 6.8±0.2 ng/ml, for those in Group II 4.1±0.3 ng/ml and less than 1 ng/ml for those in Group III.

purebred Angus bulls = assay: Example 17: injection into testes of Angus bulls, rate of gain and carcass quality; assay type: in vivo, cattle; details: for BODY WEIGHT Final: after one year; for BODY WEIGHT Final / % Fat / % Protein / Rate of Gain: III 500.0 mg tannic acid, IV 500.0 mg ZnSO4.7H2 O, V 250.0 mg + 250.0 mg; for % Fat / % Protein / Rate of Gain / rate of gain vs surgically castrated animals: one year; for Rate of Gain: surgically castrated 1.29; for rate of gain vs surgically castrated animals: vs Group II surgically castrated
Procedure: Ten purebred Angus bulls weighing an average of 400 pounds were divided into five groups, Group I being a control. Each animal in Group I was injected with 5.0 ml of water in each testis. Those in Group II were surgically castrated. The animals in Group III were injected with 500.0 mg of tannic acid, those in Group IV with 500.0 mg of ZnSO4.7H2 O and those in Group V with 250.0 mg of tannic acid and 250.0 mg of ZnSO4.7H2 O.
The animals were fed concentrate and grazed. After one year, they were sacrificed.

weaned male rats = assay: Example 12: injection into testes of weaned 30-day old rats; details: 60 days, per testis: II 5.0 mg ZnSO4.7H2 O, III 5.0 mg tannic acid, IV 2.5 mg + 2.5 mg
Procedure: Two hundred 30-day old male rats, just weaned, were divided into four groups, Group I being a control. The rats in Group I were injected with 0.05 ml of water into each testis. The rats in Group II were similarly injected with 5.0 mg of ZnSO4.7H2 O, those in Group III with 5.0 mg of tannic acid and those in Group IV with a mixture (Kastrin) containing 2.5 mg tannic acid and 2.5 mg ZnSO4.7H2 O.
Forty of the animals were sacrificed 60 days after treatment. The others were watched for a year.

[1] = system: litter mate dogs, 8 weeks old; assay: Example 13: injection into testes of 8 weeks old litter mate dogs; details: Group II, 20.0 mg tannic acid buffered to pH 6.5 into each testis
Procedure: Thirty-eight litter mate dogs, 8 weeks old, were divided into four groups. The dogs in Group I were a control and were injected with 0.2 ml of water into each testis. The animals in Group II were similarly treated in each testis with 20.0 mg of tannic acid buffered to a pH of 6.5. Those in Group III were treated with 20 mg of ZnSO4.7H2 O and those in Group IV with a mixture of 10 mg of tannic acid and 10 mg of ZnSO4.7H2 O.

[2] = system: male reproduction of sexually mature rats; assay: Example 5: zinc sulfate injected into the testes of sexually mature rats; assay type: in vivo; details: rat, 0.5, 2.5 and 5.0 mg into the testes
Description: Such injection was made into the midline of each testis with a sterilized needle.

spermatogenesis / testis = assay: General findings: arrest of spermatogenesis and diffusion of zinc after injection into testis; assay type: in vivo; details: astringent zinc sulfate, injected in testis
Procedure: Recommended dosages, as above mentioned, depend upon the size and species of the animal and upon the desired result. Recommended dosages for sterilization of adult dogs weighing less than 10 kg is 0.25 ml into each testis of a mixture containing between 10.0 and 25.0 mg of tannic acid and 25.0 mg of ZnSO4.7H2 O. For dogs weighing between 10 and 15 kg, the recommended dose is 0.5 ml into each testis of a mixture containing between 10.0 and 50.0 mg of tannic acid and 50.0 mg of ZnSO4.7H2O. For those dogs weighing between 16 and 20 kg, the recommended dose is 1.0 ml into each testis of a mixture containing between 50.0 and 100.0 mg of tannic acid and between 75.0 and 100.0 mg of ZnSO4.7H2 O. For dogs weighing over 20 kg, the recommended dose is 1.0 ml in each testis of a mixture containing between 50.0 and 125.0 mg of tannic acid and 125.0 mg of ZnSO4.7H2 O.
In the case of puppies between 6 and 8 weeks of age, the recommended dose is 0.05 ml into each testis of a mixture containing 2.0 mg of tannic acid and 5.0 mg of ZnSO4.7H2 O. For puppies over 8 weeks but not sexually mature, the dose is preferably 0.08 ml into each of the testes of a mixture containing 7.0 mg of tannic acid and 7.0 mg of ZnSO4.7H2 O. For adult cats, the recommended dose is 0.1 ml into each testis of a mixture containing 10.0 mg of tannic acid and 10.0 mg of ZnSO4.7H2 O. […]

[3] = system: male reproduction of sexually mature rats; details: rat
Procedure: This example illustrates the effect of zinc sulfate on male reproduction of sexually mature rats when administered orally.
Three hundred sexually mature rats were divided into three groups, Group I being a control. Group II rats were treated daily with 15.0 mg ZnSO4.7H2 O and Group III rats with 50.0 mg, both groups receiving said treatment for 30 days.
(§1) ZnSO4 solution was made up from ZnSO4 . 7H2 O salt.
Therefore 15 and 50 mgZnSO4 . 7H2 O correspond to 8.42 mg, 28.0

[4] = system: male reproduction of sexually mature rats; details: rat; for Testosterone ng/ml serum / Epididymis weight / Prostate weight / Seminal Vesicles weight / Testes weight: i.p.; for Epididymis weight / Prostate weight / Seminal Vesicles weight / Testes weight: sacrificed at 60 days
Procedure: This example illustrates the effect of zinc sulfate on male reproduction of sexually mature rats when administered intraperitoneally.
Four hundred sexually mature rats were divided into four groups, Group I being a control. The rats in Groups II, III and IV were treated daily for 30 days, respectively, with 0.5, 1.0 and 5.0 mg ZnSO4.7H2 O. At the end of 60 days, as in Example 1, the rats were sacrificed.
as §1
Therefore 0.5 mg, 1.0 mg and 5.0 mg ZnSO4 . 7H2 O correspond to
0.28 mg, 0.56 mg and 2.81 mg ZnSO4 respectively.

[5] = system: male reproduction in sexually mature rats; details: rat
Procedure: One hundred sexually mature rats were divided into two groups, Group I being a control. Each of the Group II rats was injected with 25 mg ZnSO4.7H2 O into each side of the scrotum.
*Animals were sacrificed 60 days after

[6] = system: male reproduction of sexually mature rats
Procedure: This example illustrates the effect of zinc sulfate on male reproduction of sexually mature rats when administered in the vas diferens.
Eighty sexually mature male rats were divided into four groups, Group I being a control. The rats in Groups II, III and IV were treated by injecting 0.5, 2.5 and 5.0 mg ZnSO4.7H2 O into the vas diferens.
At the end of 60 days, as in the other examples, the rats were sacrificed.

[7] = oral, 15 mg ZnSO4.7H2 O daily 30 days
[8] = oral, 50 mg ZnSO4.7H2 O daily 30 days
[9] = oral, 15.0 and 50.0 mg daily 30 days
[10] = 0.5 mg ZnSO4.7H2 O daily 30 days
[11] = 1.0 mg ZnSO4.7H2 O daily 30 days
[12] = 5.0 mg ZnSO4.7H2 O daily 30 days
[13] = i.p., 0.5, 1.0 and 5.0 mg daily 30 days
[14] = 25 mg ZnSO4.7H2 O into each scrotum, 60 days after
[15] = 25 mg ZnSO4.7H2 O into each scrotum, 60 days after, p<0.001 vs control
[16] = 25 mg into each side of the scrotum
[17] = 25 mg into each side of the scrotum, FIGS. 1 and 2
[18] = rat, 0.5, 2.5 and 5.0 mg into the vas deferens, 60 days

[Zn] [zinc]
toxic effects on human spermatozoa (human spermatozoa; under certain conditions): can exert toxic effects on human spermatozoa
sperm motility (human spermatozoa; zinc 5 μg/ml (0.075 mM), without albumin): markedly inhibited sperm motility
sperm motility (human spermatozoa; zinc 50 μg/ml (0.75 mM), with 4% albumin): only slightly inhibited sperm motility

tannic acid
sperm count (sexually mature cats; cats, one week, per testis II 10.0 mg tannic acid pH 6.8, III 5.0 mg tannic acid + 5.0 mg ZnSO4.7H2 O, control 230×10^6 /ml): zero
behaviour / male aggressiveness (sexually mature cats; cats, II 10.0 mg tannic acid, III 5.0 mg + 5.0 mg per testis): acted normally
testosterone level (sexually mature cats; cats, II 10.0 mg tannic acid, III 5.0 mg + 5.0 mg per testis, control 6.8±0.2 ng/ml): 4.1 ± 0.3 ng/mL
weight gain (sexually mature cats; in vivo): None of the animals in Groups II or III gained any more weight than those in Group I
BODY WEIGHT Final (purebred Angus bulls): 826
% Fat (purebred Angus bulls): 18.0%
% Protein (purebred Angus bulls): 18.3%
Rate of Gain (purebred Angus bulls): 1.40 lbs/day
rate of gain vs surgically castrated animals (purebred Angus bulls): faster rate of gain than the surgically castrated animals
Epididymis weight (weaned male rats): 0.31 ± 0.07 gm
Prostate weight (weaned male rats): 0.10 ± 0.05 gm
Seminal Vesicles Wt. (weaned male rats): 0.14 ± 0.04 gm
Testes weight (weaned male rats): 0.46 ± 0.12 gm
muscular appearance [1]: better muscular appearance than those in the control group

O=S(=O)([O-])[O-].[Zn+2] [zinc sulfate]
testosterone level [2]: decrease in the testosterone level
pregnancy of females mated ([2]; mated with females in heat): No pregnancy resulted
weight of the male reproductive organs ([2]; reduction increased with the dose): significant reduction in the weight of the male reproductive organs
BODY WEIGHT Final (purebred Angus bulls): 910
% Fat (purebred Angus bulls): 20.9%
% Protein (purebred Angus bulls): 17.9%
Rate of Gain (purebred Angus bulls): 1.54 lbs/day
rate of gain vs surgically castrated animals (purebred Angus bulls): faster rate of gain than the surgically castrated animals
diffusion of zinc beyond epididymis and prostate (spermatogenesis / testis): no diffusion beyond that
diffusion of zinc to the epididymis and prostate (spermatogenesis / testis): some diffusion of the zinc to the epididymis and prostate
Epididymis weight [3, 7]: 0.94 ± 0.03 gm
Prostate weight [3, 7]: 0.44 ± 0.03 gm
Seminal Vesicles weight [3, 7]: 0.73 ± 0.04 gm
Testes weight [3, 7]: 2.88 ± 0.17 gm
Testosterone ng/ml serum [3, 7]: 6.25 ± 1.68 ng/mL
Epididymis weight [3, 8]: 0.91 ± 0.04 gm
Prostate weight [3, 8]: 0.42 ± 0.02 gm
Seminal Vesicles weight [3, 8]: 0.78 ± 0.04 gm
Testes weight [3, 8]: 2.94 ± 0.13 gm
Testosterone ng/ml serum [3, 8]: 6.57 ± 0.58 ng/mL
histological changes in the male reproductive organs [3, 9]: No histological changes were observed
testosterone levels [3, 9]: no change was noted in testosterone levels
weight of the testes, epididymis, prostate or seminal vesicles [3, 9]: no significant change in the weight of the testes, epididymis, prostate or seminal vesicles
impregnation of females in heat ([3]; treated orally, mated with females in heat): impregnated the females
Testosterone ng/ml serum [4, 10]: 6.79 ± 1.34 ng/mL
Epididymis weight [4, 10]: 0.90 ± 0.02 gm
Prostate weight [4, 10]: 0.42 ± 0.04 gm
Seminal Vesicles weight [4, 10]: 0.72 ± 0.04 gm
Testes weight [4, 10]: 2.94 ± 0.03 gm
Testosterone ng/ml serum [4, 11]: 6.87 ± 0.58 ng/mL
Epididymis weight [4, 11]: 0.90 ± 0.02 gm
Prostate weight [4, 11]: 0.46 ± 0.03 gm
Seminal Vesicles weight [4, 11]: 0.74 ± 0.04 gm
Testes weight [4, 11]: 3.05 ± 0.07 gm
Testosterone ng/ml serum [4, 12]: 6.30 ± 0.68 ng/mL
Epididymis weight [4, 12]: 0.88 ± 0.04 gm
Prostate weight [4, 12]: 0.41 ± 0.02 gm
Seminal Vesicles weight [4, 12]: 0.89 ± 0.07 gm
Testes weight [4, 12]: 2.74 ± 0.13 gm
histological changes in the sex organs [4, 13]: no histological changes were observed in the sex organs
testosterone level [4, 13]: testosterone level was not changed
weight of the testes, epididymis, prostate or seminal vesicles [4, 13]: no significant reduction in the weight of the testes, epididymis, prostate or seminal vesicles
impregnation of females in heat ([4]; treated intraperitoneally, mated with females in heat): impregnated the females
Prostate weight [5, 14]: 0.82 ± 0.06 gm
Seminal Ves weight [5, 14]: 1.20 ± 0.02 gm
Epididymis weight [5, 15]: 0.56 ± 0.06 gm
Testes weight [5, 15]: 1.42 ± 0.09 gm
weight of the prostate and seminal vesicles [5, 16]: no difference, however, in the weight of the prostate and seminal vesicles
weight of the testes and epididymis [5, 16]: significant reduction in the weight of the testes and epididymis
pregnancy of females mated ([5]; 25 mg into each side of the scrotum, mated with females in heat): No pregnancy resulted
testosterone levels ([5]; 25 mg into each side of the scrotum, vs control): no significant reduction in testosterone levels
condition of the Leydig cells (histology of the testes) [5, 17]: no difference in the condition of the Leydig cells
condition of the sex cells (histology of the testes) [5, 17]: significant change in the condition of the sex cells
impregnation of females ([6]; rat, 5.0 mg ZnSO4.7H2 O in the vas deferens, mated with females in heat): did not impregnate the females
effect on spermatogenesis [6, 18]: no effect on spermatogenesis
weight of the testes, prostate or seminal vesicles [6, 18]: no significant change in the weight of the testes, prostate or seminal vesicles
pregnancy of females mated ([6]; rat, 0.5 and 2.5 mg ZnSO4.7H2 O in the vas deferens, mated with females in heat): Pregnancy also occurred
Epididymis weight (weaned male rats): 0.10 ± 0.03 gm
Prostate weight (weaned male rats): 0.05 ± 0.02 gm
Seminal Vesicles Wt. (weaned male rats): 0.05 ± 0.02 gm
Testes weight (weaned male rats): 0.21 ± 0.04 gm
